Key:
[1] = biological target: T1, phosphor-EGFR in H1975(L585R/T790M) mutant EGFR expressing cells (Homo sapiens, UniProt P00533, L858R/T790M); assay: H1975 pEGFR MSD cellular assay; type: cell-based; details: NCI-H1975 cells, serum starved, 1 hour compound incubation, pEGFR Tyr1068 MSD
T1 construct: host or cells: NCI-H1975
Procedure: H1975 pEGFR MSD Cellular Assays Background:
These assays are intended for determining cellular. […] (Meso Scale Discovery Catalog# N31CB-1).
All cell culture reagents were purchased from Invitrogen/Gibco. Cells are cultured at 37° C. at 5% CO2 and split as recommended by ATCC.
Cell Plating and Serum Starvation:
After six hours, culture medium is aspirated and replaced with serum-free culture medium. Cells are then incubated with the serum-free medium overnight at 37° C. and 5% CO2.
The following day, test compounds are serially diluted in dimethyl sulfoxide (DMSO) and added to cells in serum free medium (final DMSO concentration 0.5%). Assay plates are then incubated for 1 hour at 37° C. and 5% CO2. Following 1 hour of compound incubation cells are then lysed and processed as per the MSD pEGFR assay kit protocol. Cell lysates are added to assay plates pre-coated with antibodies against phosphorylated EGFR. Phosphorylated EGFR in samples are allowed to bind to the capture antibodies overnight at 4° C. The detection antibody (anti-total EGFR, labeled with an electrochemiluminescent SULFO-TAG) is added to the bound lysate and incubated for 1 hour at room temperature. The MSD Read Buffer is added such that when a voltage is applied to the plate electrodes, the labels bound to the electrode surface emit light. The MSD Sector Instrument measures the intensity of the light, and quantitatively measures the amount of phosphorylated-EGFR in the sample. Percent inhibition of EGFR phosphorylation by varying concentrations of test compounds is calculated relative to untreated controls. EC50 values are calculated using the 4 parameter logistic nonlinear regression dose-response model.

EGFR del746-750 T790M = biological target: T2, EGFR del746-750 T790M (Homo sapiens, UniProt P00533, DEL746-750/T790M); assay: EGFR del746-750 T790M biochemical assay (Caliper mobility shift); details: 5 μM ATP, 30 min, room temperature; apparent Ki (Morrison) converted by Cheng-Prusoff, Km of ATP 2.1 μM; read-out: EGFR(T790M/d746-750) Ki
T2 construct: purchased Carna Biosciences 08-528
T2 sequence (P00533 with tags, fused parts or gaps DEL746-750/T790M limits assumed): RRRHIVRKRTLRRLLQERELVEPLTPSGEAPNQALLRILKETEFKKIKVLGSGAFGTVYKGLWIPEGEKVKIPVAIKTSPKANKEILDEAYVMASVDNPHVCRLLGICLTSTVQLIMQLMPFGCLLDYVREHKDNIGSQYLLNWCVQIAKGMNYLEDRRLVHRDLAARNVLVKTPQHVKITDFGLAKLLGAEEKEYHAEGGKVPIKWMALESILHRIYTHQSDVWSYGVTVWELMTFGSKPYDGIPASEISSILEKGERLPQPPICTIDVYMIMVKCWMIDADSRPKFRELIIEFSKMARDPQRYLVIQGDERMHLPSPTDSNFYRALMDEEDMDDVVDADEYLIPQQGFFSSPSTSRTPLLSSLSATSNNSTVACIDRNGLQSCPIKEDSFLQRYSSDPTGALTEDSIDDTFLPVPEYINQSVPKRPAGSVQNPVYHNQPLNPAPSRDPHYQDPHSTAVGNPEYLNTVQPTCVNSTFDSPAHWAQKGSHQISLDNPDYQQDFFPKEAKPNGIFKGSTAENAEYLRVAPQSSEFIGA

T1 sequence (P00533 25-1210 T790M/L858R): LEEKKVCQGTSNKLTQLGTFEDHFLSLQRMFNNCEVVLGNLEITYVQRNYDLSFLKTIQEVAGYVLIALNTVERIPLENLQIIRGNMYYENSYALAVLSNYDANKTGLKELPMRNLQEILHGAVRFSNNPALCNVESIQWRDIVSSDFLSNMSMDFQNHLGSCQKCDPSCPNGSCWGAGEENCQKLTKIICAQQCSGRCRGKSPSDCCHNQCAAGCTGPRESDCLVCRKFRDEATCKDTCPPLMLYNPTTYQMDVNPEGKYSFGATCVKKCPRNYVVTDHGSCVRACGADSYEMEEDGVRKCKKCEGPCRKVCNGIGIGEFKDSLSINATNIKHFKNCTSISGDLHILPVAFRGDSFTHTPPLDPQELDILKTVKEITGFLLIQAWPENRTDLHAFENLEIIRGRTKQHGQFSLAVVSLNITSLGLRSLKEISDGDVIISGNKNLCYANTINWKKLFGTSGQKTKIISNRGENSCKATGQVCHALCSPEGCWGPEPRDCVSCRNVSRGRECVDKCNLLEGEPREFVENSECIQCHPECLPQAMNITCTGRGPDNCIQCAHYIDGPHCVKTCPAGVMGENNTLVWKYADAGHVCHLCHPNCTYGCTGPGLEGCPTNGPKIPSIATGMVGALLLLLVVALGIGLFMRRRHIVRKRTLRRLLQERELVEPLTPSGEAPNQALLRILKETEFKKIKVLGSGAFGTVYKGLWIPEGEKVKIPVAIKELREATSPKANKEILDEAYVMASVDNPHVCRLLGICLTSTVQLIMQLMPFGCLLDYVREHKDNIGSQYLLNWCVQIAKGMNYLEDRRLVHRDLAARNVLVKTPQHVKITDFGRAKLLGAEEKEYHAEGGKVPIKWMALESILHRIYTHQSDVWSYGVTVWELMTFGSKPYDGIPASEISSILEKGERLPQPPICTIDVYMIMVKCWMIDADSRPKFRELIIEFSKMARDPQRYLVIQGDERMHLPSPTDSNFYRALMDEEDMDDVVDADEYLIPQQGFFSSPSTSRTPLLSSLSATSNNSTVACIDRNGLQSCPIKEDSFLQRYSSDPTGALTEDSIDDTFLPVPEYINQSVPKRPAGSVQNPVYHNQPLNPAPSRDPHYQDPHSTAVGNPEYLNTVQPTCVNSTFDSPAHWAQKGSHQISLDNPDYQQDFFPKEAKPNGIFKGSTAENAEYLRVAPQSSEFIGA

EC50 [1] [nM]	Ki (EGFR del746-750 T790M) [nM]	Compound
105	0.53	CC(=O)Nc1cn(C(C)C)c2cc(Nc3ccnc(-c4cnn(S(=O)(=O)C5CC5)c4)n3)ncc12 [Example 327, N-(6-((2-(1-(Cyclopropylsulfonyl)-1H-pyrazol-4-yl)pyrimidin-4-yl)amino)-1-isopropyl-1H-pyrrolo[3,2-c]pyridin-3-yl)acetamide]
236	20.2	CCNC(=O)c1cn(C(C)C)c2cc(Nc3ccnc(N4CCC(OC)CC4)n3)ncc12 [Example 57, N-Ethyl-1-isopropyl-6-((2-(4-methoxypiperidin-1-yl)pyrimidin-4-yl)amino)-1H-pyrrolo[3,2-c]pyridine-3-carboxamide]
623	144	COC1CCN(c2nccc(Nc3cc4c(cn3)nc(C(F)F)n4C(C)C)n2)CC1 [Example 110, 2-(difluoromethyl)-1-isopropyl-N-(2-(4-methoxypiperidin-1-yl)pyrimidin-4-yl)-1H-imidazo[4,5-c]pyridin-6-amine]
239	5.47	CCNC(=O)c1cn(C(C)CC)c2cc(Nc3ccnc(N4CC[C@@H](O)[C@@H](F)C4)n3)ncc12 (single isomer, unassigned) [Example 369]
2190	17.2	CC(C)n1c(CO)nc2cnc(Nc3ccnc(N4C[C@H]5CC[C@@H](C4)[C@H]5O)n3)cc21 [Example 433, (1R,5S,8r)-3-(4-((2-(hydroxymethyl)-1-isopropyl-1H-imidazo[4,5-c]pyridin-6-yl)amino)pyrimidin-2-yl)-3-azabicyclo[3.2.1]octan-8-ol]
189	5.04	C[C@H](n1c([C@@H](C)O)nc2cnc(Nc3ccnc(N4CCC(O)C(F)C4)n3)cc21)C(F)(F)F (mixture of isomers) [Example 296, cis-3-Fluoro-1-{4-[2-((R)-1-hydroxyethyl)-1-((S)-2,2,2-trifluoro-1-methylethyl)-1H-imidazo[4,5-c]pyridin-6-ylamino]pyrimidin-2-yl}piperidin-4-ol]
1410	60.9	COC1CCN(c2nccc(Nc3cc4c(cn3)c(C#N)cn4C(C)C)n2)CC1 [Example 58, 1-Isopropyl-6-((2-(4-methoxypiperidin-1-yl)pyrimidin-4-yl)amino)-1H-pyrrolo[3,2-c]pyridine-3-carbonitrile]
112	0.84	CNc1ncc(-c2nccc(Nc3cc4c(cn3)nc(C)n4C(C)C)n2)s1 [Example 312, (1-Isopropyl-2-methyl-1H-imidazo[4,5-c]pyridin-6-yl)-[2-(2-methylaminothiazol-5-yl)pyrimidin-4-yl]amine]
60.9	1.34	CCC(C)n1cc(C(=O)NC2CCOCC2)c2cnc(Nc3ccnc(-c4cnn(S(=O)(=O)C5CC5)c4)n3)cc21 (single isomer, unassigned; (-)) [Example 322, (−)-1-(sec-butyl)-6-((2-(1-(cyclopropylsulfonyl)-1H-pyrazol-4-yl)pyrimidin-4-yl)amino)-N-(tetrahydro-2H-pyran-4-yl)-1H-pyrrolo[3,2-c]pyridine-3-carboxamide]
254	1.8	Cc1nc2cnc(Nc3ccnc(-c4cnn(S(=O)(=O)C5CC5)c4)n3)cc2n1C(C)C [Example 52, N-(2-(1-(Cyclopropylsulfonyl)-1H-pyrazol-4-yl)pyrimidin-4-yl)-1-isopropyl-2-methyl-1H-imidazo[4,5-c]pyridin-6-amine]
76.9	1.47	CC(C)n1cc(C(=O)NC2CCOCC2)c2cnc(Nc3ccnc(-c4cnn(S(=O)(=O)C5CC5)c4)n3)cc21 [Example 396]
34.7	2.81	CCC(C)n1cc(C(=O)NC2CCOCC2)c2cnc(Nc3ccnc(N4CCC(O)C(C)(C)C4)n3)cc21 (mixture of isomers) [Example 383, 1-(sec-butyl)-6-((2-(4-hydroxy-3,3-dimethylpiperidin-1-yl)pyrimidin-4-yl)amino)-N-(tetrahydro-2H-pyran-4-yl)-1H-pyrrolo[3,2-c]pyridine-3-carboxamide]
14.5	2.88	CCC(C)n1cc(C(=O)NC2CCOCC2)c2cnc(Nc3ccnc(N4CC[C@@H](OC)[C@@H](F)C4)n3)cc21 (single isomer, unassigned) [Example 376]
67.3	4.44	CCC(C)n1cc(C(=O)NC2CCOC2)c2cnc(Nc3ccnc(N4CCC(O)C(C)(C)C4)n3)cc21 (mixture of isomers) [Example 373, 1-(sec-butyl)-6-((2-(4-hydroxy-3,3-dimethylpiperidin-1-yl)pyrimidin-4-yl)amino)-N-(tetrahydrofuran-3-yl)-1H-pyrrolo[3,2-c]pyridine-3-carboxamide]
583	28.7	COC1CCN(c2nccc(Nc3cc4c(cn3)c(-c3nnc(C)o3)cn4C(C)C)n2)CC1 [Example 59, 1-Isopropyl-N-(2-(4-methoxypiperidin-1-yl)pyrimidin-4-yl)-3-(5-methyl-1,3,4-oxadiazol-2-yl)-1H-pyrrolo[3,2-c]pyridin-6-amine]
710	28.5	COC1CCN(c2nccc(Nc3cc4c(cn3)c(C(N)=O)cn4C(C)C)n2)CC1 [Example 115, 1-isopropyl-6-((2-(4-methoxypiperidin-1-yl)pyrimidin-4-yl)amino)-1H-pyrrolo[3,2-c]pyridine-3-carboxamide]
252	2.28	Cc1c(C(=O)NC2CCOCC2)c2cnc(Nc3ccnc(-c4cnn(S(=O)(=O)C5CC5)c4)n3)cc2n1C(C)C [Example 335, 6-((2-(1-(Cyclopropylsulfonyl)-1H-pyrazol-4-yl)pyrimidin-4-yl)amino)-1-isopropyl-2-methyl-N-(tetrahydro-2H-pyran-4-yl)-1H-pyrrolo[3,2-c]pyridine-3-carboxamide]
871	47.7	COC1CCN(c2nccc(Nc3cc4c(cn3)nc(C)n4C(C)C)n2)CC1 [Example 5, (1-Isopropyl-2-methyl-1H-imidazo[4,5-c]pyridin-6-yl)-[2-(4-methoxypiperidin-1-yl)pyrimidin-4-yl]amine]
10.9	1.12	CC(C)n1cc(-c2cnn(CCO)c2)c2cnc(Nc3ccnc(-c4cnn(S(=O)(=O)C5CC5)c4)n3)cc21 [Example 393, 2-(4-(6-((2-(1-(cyclopropylsulfonyl)-1H-pyrazol-4-yl)pyrimidin-4-yl)amino)-1-isopropyl-1H-pyrrolo[3,2-c]pyridin-3-yl)-1H-pyrazol-1-yl)ethanol]
1740	8.86	CC1(C)COc2nc3cnc(Nc4ccnc(-c5cnn(S(=O)(=O)C6CC6)c5)n4)cc3n21 [Example 280, [2-(1-Cyclopropanesulfonyl-1H-pyrazol-4-yl)-pyrimidin-4-yl]-(3,3-dimethyl-2,3-dihydro-1-oxa-3a,6,8-triazacyclopenta[a]inden-5-yl)-amine]
1370	5.61	CC1(C)CCOc2nc3cnc(Nc4ccnc(-c5cnn(S(=O)(=O)C6CC6)c5)n4)cc3n21 [Example 534, [2-(1-Cyclopropanesulfonyl-1H-pyrazol-4-yl)-pyrimidin-4-yl]-(4,4-dimethyl-3,4-dihydro-2H-1-oxa-4a,7,9-triazafluoren-6-yl)amine]
24.7	5.81	COC1CCN(c2nccc(Nc3cc4c(cn3)nc([C@@H](C)O)n4[C@@H](C)C(F)(F)F)n2)CC1F (stereo partly drawn) [Example 543, (R)-1-[6-[2-(3-Fluoro-4-methoxypiperidin-1-yl)-pyrimidin-4-ylamino]-1-((S)-2,2,2-trifluoro-1-methyl-ethyl)-1H-imidazo[4,5-c]pyridin-2-yl]ethanol]
1190	25.2	COC1CCN(c2nccc(Nc3cc4c(cn3)ncn4C3CCCC3)n2)CC1 [Example 26, (1-Cyclopentyl-1H-imidazo[4,5-c]pyridin-6-yl)-[2-(4-methoxy-piperidin-1-yl)-pyrimidin-4-yl]amine]
80.6	1.77	CCNc1ncc(-c2nccc(Nc3cc4c(cn3)nc(C)n4C(C)C)n2)s1 [Example 295, [2-(2-Ethylaminothiazol-5-yl)pyrimidin-4-yl](1-isopropyl-2-methyl-1H-imidazo[4,5-c]pyridin-6-yl)amine]
57.7	1.48	CC(C)n1c(Cl)c(C(=O)NC2CCOCC2)c2cnc(Nc3ccnc(-c4cnn(S(=O)(=O)C5CC5)c4)n3)cc21 [Example 262, 2-Chloro-6-(2-(1-(cyclopropylsulfonyl)-1H-pyrazol-4-yl)pyrimidin-4-ylamino)-1-isopropyl-N-(tetrahydro-2H-pyran-4-yl)-1H-pyrrolo[3,2-c]pyridine-3-carboxamide]
585	106	COC1CCN(c2nccc(Nc3cc4c(cn3)nc(COCCN(C)C)n4C(C)C)n2)CC1 [Example 8, [2-(2-Dimethylaminoethoxymethyl)-1-isopropyl-1H-imidazo[4,5-c]pyridin-6-yl]-[2-(4-methoxypiperidin-1-yl)pyrimidin-4-yl]amine]
